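Dose response: 5 concentrations. Exposure: 48 h. Format: 96-well plates. Endpoint: linear interpolation; highest concentration if not reached. GI50: concentration for 50% inhibition of growth.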 The source made the active and inactive calls. No stated cut-off is given here; in the data, active = GI50 up to about 1.1 µM and inactive = higher.
Tests used:
Test in all cases: DTP human tumour cell line panel, 48 h
[1] = system: MOLT-4
[2] = system: SN12C
[3] = system: K562
[4] = system: OVCAR-5
[5] = system: SF-539
[6] = system: RPMI-8226
[7] = system: NCI-H23
[8] = system: RXF 393
[9] = system: NCI-H522
[10] = system: OVCAR-4
[11] = system: 786-0
[12] = system: IGROV-1
[13] = system: NCI-H226
[14] = system: SK-MEL-5
[15] = system: UACC-257
[16] = system: UACC-62
[17] = system: HCC 2998
[18] = system: M19-MEL
[19] = system: DMS-114
[20] = system: SR
[21] = system: SK-MEL-28
[22] = system: U-251
[23] = system: SW-620
[24] = system: CAKI-1
[25] = system: SK-MEL-2
[26] = system: RXF 631
[27] = system: DMS-273
[28] = system: KM-20L2
[29] = system: A549
[30] = system: HCT-116
[31] = system: LXFL 529
[32] = system: TK-10
[33] = system: M14
[34] = system: OVCAR-8
[35] = system: SNB-78
[36] = system: HOP-92
[37] = system: EKVX
[38] = system: KM12
[39] = system: COLO 205
[40] = system: SNB-19
[41] = system: HCT-15
[42] = system: HOP-18
[43] = system: SF-295
[44] = system: SF-268
[45] = system: UO-31
[46] = system: CCRF-CEM
[47] = system: ACHN
[48] = system: Malme-3M
[49] = system: OVCAR-3
[50] = system: LOX IMVI
[51] = system: HOP-62
[52] = system: SNB-75
[53] = system: HT-29
[54] = system: DLD-1
[55] = system: HL-60
[56] = system: A498
[57] = system: SK-OV-3
[58] = system: NCI-H460

SMILES: COC(=O)C(=O)C(C(=O)C(=O)Nc1cc(C)ccc1C)c1nc2ccc(C(=O)c3ccccc3)cc2nc1O (stereo not given)
- GI50 [1]: 48.9 µM (inactive)
- GI50 [2]: > 100 µM (inactive)
- GI50 [3]: 31 µM (inactive)
- GI50 [4]: 43.1 µM (inactive)
- GI50 [5]: > 100 µM (inactive)
- GI50 [6]: 94.2 µM (inactive)
- GI50 [7]: > 100 µM (inactive)
- GI50 [8]: 46.3 µM (inactive)
- GI50 [9]: 36.3 µM (inactive)
- GI50 [10]: > 100 µM (inactive)
- GI50 [11]: > 100 µM (inactive)
- GI50 [12]: > 100 µM (inactive)
- GI50 [13]: 62.1 µM (inactive)
- GI50 [14]: 62.1 µM (inactive)
- GI50 [15]: > 100 µM (inactive)
- GI50 [16]: 37.2 µM (inactive)
- GI50 [17]: > 100 µM (inactive)
- GI50 [18]: 88.7 µM (inactive)
- GI50 [19]: 51.4 µM (inactive)
- GI50 [20]: 68.5 µM (inactive)
- GI50 [21]: > 10 µM (inactive)
- GI50 [22]: > 100 µM (inactive)
- GI50 [23]: > 100 µM (inactive)
- GI50 [24]: 27.5 µM (inactive)
- GI50 [25]: > 100 µM (inactive)
- GI50 [26]: > 100 µM (inactive)
- GI50 [27]: 74.3 µM (inactive)
- GI50 [28]: > 100 µM (inactive)
- GI50 [29]: > 100 µM (inactive)
- GI50 [30]: > 100 µM (inactive)
- GI50 [31]: 43.5 µM (inactive)
- GI50 [32]: > 100 µM (inactive)
- GI50 [33]: > 100 µM (inactive)
- GI50 [34]: > 100 µM (inactive)
- GI50 [35]: 58.6 µM (inactive)
- GI50 [36]: 45.8 µM (inactive)
- GI50 [37]: > 100 µM (inactive)
- GI50 [38]: 71.4 µM (inactive)
- GI50 [39]: > 100 µM (inactive)
- GI50 [40]: > 100 µM (inactive)
- GI50 [41]: > 100 µM
- GI50 [42]: 23.8 µM (inactive)
- GI50 [43]: 83.6 µM (inactive)
- GI50 [44]: > 100 µM (inactive)
- GI50 [45]: 52.7 µM (inactive)
- GI50 [46]: 42.2 µM (inactive)
- GI50 [47]: > 100 µM (inactive)
- GI50 [48]: > 100 µM (inactive)

SMILES: Cc1cccc(C)c1NC(=O)C1C(=O)N(c2c(C)cccc2C)C(=O)/C1=N\N (stereo not given)
- GI50 [1]: > 100 µM (inactive)
- GI50 [2]: > 100 µM (inactive)
- GI50 [3]: > 100 µM (inactive)
- GI50 [4]: > 100 µM (inactive)
- GI50 [5]: > 100 µM (inactive)
- GI50 [6]: > 100 µM (inactive)
- GI50 [7]: > 100 µM (inactive)
- GI50 [8]: > 100 µM (inactive)
- GI50 [9]: > 100 µM (inactive)
- GI50 [10]: > 100 µM (inactive)
- GI50 [11]: > 100 µM (inactive)
- GI50 [12]: > 100 µM (inactive)
- GI50 [13]: > 100 µM (inactive)
- GI50 [49]: > 100 µM (inactive)
- GI50 [14]: > 100 µM (inactive)
- GI50 [15]: > 100 µM (inactive)
- GI50 [50]: > 100 µM (inactive)
- GI50 [16]: > 100 µM (inactive)
- GI50 [17]: > 100 µM (inactive)
- GI50 [51]: > 100 µM (inactive)
- GI50 [18]: > 100 µM (inactive)
- GI50 [20]: > 100 µM (inactive)
- GI50 [21]: > 100 µM (inactive)
- GI50 [22]: > 100 µM (inactive)
- GI50 [23]: > 100 µM (inactive)
- GI50 [24]: > 100 µM (inactive)
- GI50 [25]: > 100 µM (inactive)
- GI50 [52]: > 100 µM (inactive)
- GI50 [26]: > 100 µM (inactive)
- GI50 [27]: > 100 µM (inactive)
- GI50 [28]: > 100 µM (inactive)
- GI50 [29]: > 100 µM (inactive)
- GI50 [30]: > 100 µM (inactive)
- GI50 [31]: > 100 µM (inactive)
- GI50 [32]: > 100 µM (inactive)
- GI50 [33]: > 100 µM (inactive)
- GI50 [34]: > 100 µM (inactive)
- GI50 [53]: > 100 µM (inactive)
- GI50 [36]: > 100 µM (inactive)
- GI50 [37]: > 100 µM (inactive)
- GI50 [39]: > 100 µM (inactive)
- GI50 [54]: > 100 µM (inactive)
- GI50 [55]: 1.68 µM (inactive)
- GI50 [40]: > 100 µM (inactive)
- GI50 [41]: > 100 µM
- GI50 [56]: > 100 µM (inactive)
- GI50 [42]: > 100 µM (inactive)
- GI50 [43]: > 100 µM (inactive)
- GI50 [44]: > 100 µM (inactive)
- GI50 [45]: > 100 µM (inactive)
- GI50 [57]: > 100 µM (inactive)
- GI50 [46]: > 100 µM (inactive)
- GI50 [47]: > 100 µM (inactive)
- GI50 [48]: > 100 µM (inactive)

SMILES: CC/C(CC(=O)CCC(=O)Nc1ccc(C)c(C)c1)=N\NC(=O)c1cc2ccccc2cc1O
- GI50 [1]: 11.4 µM (inactive)
- GI50 [2]: 28.3 µM (inactive)
- GI50 [3]: 21.8 µM (inactive)
- GI50 [4]: 31 µM (inactive)
- GI50 [7]: 23.6 µM (inactive)
- GI50 [8]: 15.1 µM (inactive)
- GI50 [10]: 18.4 µM (inactive)
- GI50 [12]: 19 µM (inactive)
- GI50 [13]: 13.4 µM (inactive)
- GI50 [49]: 18.6 µM (inactive)
- GI50 [15]: 45.2 µM (inactive)
- GI50 [50]: 16.1 µM (inactive)
- GI50 [16]: 14.6 µM (inactive)
- GI50 [17]: 18.4 µM (inactive)
- GI50 [51]: 26 µM (inactive)
- GI50 [18]: 28.8 µM (inactive)
- GI50 [19]: 32.9 µM (inactive)
- GI50 [20]: 18 µM (inactive)
- GI50 [21]: 20.7 µM (inactive)
- GI50 [22]: 28.8 µM (inactive)
- GI50 [23]: 30.2 µM (inactive)
- GI50 [24]: 20.8 µM (inactive)
- GI50 [25]: 31 µM (inactive)
- GI50 [26]: 69.5 µM (inactive)
- GI50 [28]: > 10 µM (inactive)
- GI50 [30]: 37.6 µM (inactive)
- GI50 [31]: 21.9 µM (inactive)
- GI50 [33]: 17.1 µM (inactive)
- GI50 [34]: 21.4 µM (inactive)
- GI50 [53]: 38.5 µM (inactive)
- GI50 [35]: 48.5 µM (inactive)
- GI50 [36]: 31.2 µM (inactive)
- GI50 [37]: 27.5 µM (inactive)
- GI50 [38]: 38.4 µM (inactive)
- GI50 [39]: 37 µM (inactive)
- GI50 [54]: 13.4 µM (inactive)
- GI50 [55]: 1.92 µM (inactive)
- GI50 [40]: 39.1 µM (inactive)
- GI50 [41]: 13.9 µM
- GI50 [42]: 15.2 µM (inactive)
- GI50 [43]: 37.2 µM (inactive)
- GI50 [58]: 23.6 µM (inactive)
- GI50 [44]: 22.1 µM (inactive)
- GI50 [45]: 26 µM (inactive)
- GI50 [57]: 13.6 µM (inactive)
- GI50 [46]: 5.2 µM (inactive)
- GI50 [47]: 24.9 µM (inactive)
- GI50 [48]: 24.8 µM (inactive)

From ChEMBL document CHEMBL1201862, “PubChem BioAssay data set” (2004)
